Measured values published in US20120172453A1, “METHODS FOR TREATING NEURODEGENERATIVE DISEASES” (Coyote Pharmaceuticals, Inc., priority 2010, published 2012).

Legend:
[1] = system: Rat primary motor neurons; experiment: axon extension of rat primary motor neurons; assay type: cell-based; conditions: Neuron, cells extending axons counted after 72 hrs, values in parenthesis, read-out: reasonable range expected for the EC50
Experimental: Rat primary motor neurons were isolated from embryonic spinal cords in accordance with the method of Henderson et al.; J Cohen and G P Wilkin (ed.), Neural Cell Culture, (1995) p69-81 which is herein incorporated by reference in its entirety. Briefly, spinal cords were dissected from day 15 embryo (E15) and incubated in a trypsin solution, and followed by DNase treatment to release spinal cord cells from tissue fragments. The cell suspension was centrifuged to remove tissue fragments. Then motor neurons were enriched by density gradient centrifugation.
Motor neurons were cultured in serum-free neurobasal medium containing insulin, forskolin, 3-isobutyl-1-methylxanthine, neurotrophic factors, Bovine serum albumin, selenium, transferrin, putrescine, progesterone and B27 supplement in tissue culture plate coated with poly-ornithine and laminin.
Rat primary motor neurons were prepared and cultured as described Example 11. […] The cells extending axons were counted in five different fields for each treatment after 72 hrs. Percentage of positive cells relative to total cells in the same magnification field was calculated and the results were expressed as means+/− standard deviations, n=5.

[2] = system: Mouse Neuro2A neuroblastoma cells; experiment: Neuro2A cells with neurites counted after retinoic acid differentiation and GGTI-298; assay type: cell-based
Experimental: Mouse Neuro2A neuroblastoma cells were cultured in DMEM supplemented with 10% FBS for 24 hrs. […] Then differentiation was induced by retinoic acid in DMEM supplemented with 2% FBS. An inhibitor against a G-protein, GGTI-298, was incubated. After 24 hrs incubation, cells with neurites were counted.

Compound | EC50 [1] [nM] | effect of a large quantity on viability of neuroblastoma cells [2]
CC(=O)CC/C=C(\C)CC/C=C(\C)CC/C=C(\C)CCC=C(C)C [CNS-102, 5E,9E,13E-Geranylgeranyl acetone] | 0.5 to 2 | –
CC(=O)CC/C=C(/C)CC/C=C(\C)CC/C=C(\C)CCC=C(C)C [CNS-103, 5Z,9E,13E-Geranylgeranyl acetone] | 8 to 12 | inhibited viability of neuroblastoma cells
